In EP3958980B1, “TARGETED NOVEL TRIAZOLOTHIADIAZINE DERIVATIVES FOR THE TREATMENT OF LUNG CANCER” (Anadolu Universitesi, priority 2020, dated 2021):
≈ marks a conversion by molar mass, not a printed value. Where “and” joins values, the source holds several entries; their conditions need not be identical. Identical values can stand only once.

Experiments:
[1] = system: A549 human lung adenocarcinoma cells; assay: MTT assay, in vitro cytotoxic activity on A549; format: cell-based; conditions: for IC50: Homo sapiens, A549, 24 hour incubation, read-out: IC50 values (µg/mL) A549 cell line
Description: The in vitro cytotoxic effects of the compounds were determined with the MTT assay. For this purpose, MTT test was performed using A549 and CCD-19Lu cell lines. After the cell lines used in the invention were centrifuged following taking them out from liquid nitrogen (-196 °C), the cells were cultured in a CO2 incubator comprising 5% CO2 at 37 °C in flasks containing 10% fetal bovine serum (FBS), where CCD-19Lu cells were cultured with Dulbecco's Modified Eagle's Medium (DMEM) and A549 cells were cultured with Roswell Park Memorial Institute (RPMI). The cells that reach the sufficient number for the assay, were seeded to 96 well plates such that 2×10^3 cells were placed in each well and at the same time, components at concentrations of 1-500 µg/mL were added to cells and they were incubated at 37 °C. At the end of the 24 hour incubation period, the MTT powder (5 mg/mL in 1 × phosphate buffered saline (PBS)) was added to each well (20 µL). After a 2-4 h period under the same conditions, the medium was removed from the plate and 100 µL of DMSO was added to each well to dissolve the dye and kept for 10 minutes. Then the plates were read at a wavelength of 540 nm using ELx808-IU Bio-Tek plate reader. The control cell viability which was not treated with the components was accepted to be 100% and the viability rates of the cells were expressed as %. […] According to the results obtained, the dose range was extended until the IC50 value was determined. MTT assay is a frequently used method which measures the cytotoxic effects of the compounds on the cells by converting the yellow colored MTT stain into purple colored formazan crystals via the mitochondrial succinate dehydrogenase activity. In the cytotoxic activity tests of the compounds, A549 lung adenocarcinoma and CCDLu19 normal lung fibroblast cell lines were used.

A549 cells [2] = assay: Annexin V FITC / PI flow cytometry (apoptosis); format: cell-based, human; conditions: IC50 concentrations; for Early apoptotic cells% / Late apoptotic cells% / Necrosis% / Viable cells%: 24 hours; for early and late apoptotic effects: sum of early and late apoptotic cells
Description: Briefly, after the cells were centrifuged for 4 minutes at 800 rpm, they were washed twice with 1 × PBS and were suspended in the 1 × Annexin-V binding solution at a concentration of 2-3 × 10^6 cell/mL and then 100 µL of the cell solution was transferred into tubes. Then, 5 µL of Annexin-V Fluorescein isothiocyanate (FITC) and 10 µL of propidium iodide (PI) solution were added to each tube, after incubation for 15 minutes at room temperature, 400 µL × Annexin-V binding solution was added to each tube and the cells were analyzed by flow cytometry (BD FACSCalibur™) within 1 hour. The early and late apoptotic cell percentages were calculated according to positive control.

caspase-3 = assay: Caspase-3 activity by flow cytometry; format: cell-based, human; conditions: A549 cells, 24 hours, IC50 concentrations
Description: After the active compounds were determined with the MTT assay, their caspase-3 activities on A549 cells depending on IC50 concentrations were determined in flow cytometry with BD, Pharmingen flow cytometry kit according to the manufacturer's recommendations. Briefly, the cells were incubated at the determined doses and times with the compounds. The cells were washed twice with cold 1 X PBS. These cells were suspended with BD Cytofix/Cytoperm solution (1×10^6 cell / 0.5 mL). Then they were left to wait on ice for 20 minutes. After centrifugation, the cells were removed with the BD Cytofix/Cytoperm solution. The cells were washed twice with BD Perm/Wash™ buffer (1×10^6 cell/0.5 mL). Afterwards the cells were re-suspended with BD Perm/Wash™ buffer and antibodies and they were kept at room temperature for 30 minutes. For each test, the cells were washed in 1 mL BD Perm/Wash^TM buffer and were suspended in 0.5 mL BD Perm/Wash^TM buffer and they were analyzed with flow cytometry.

ROCK = ROCK activity assay on lysates of treated A549 cells; format: cell-based, human; conditions: for ROCK inhibition (in words) / ROCK Inhibition%: 24 hours; for ROCK inhibition (in words): IC50 and IC50/2 concentrations; for ROCK Inhibition%: IC50 concentration (9: 5.75; 11: 0.73; 12: 0.80; 14: 2.63; Cisplatin: 23.00 µg/mL)
Description: (§1) The intracellular COX, Akt and ROCK inhibitory effects of the active compounds determined with the MTT assay, were measured with the colorimetric assay according to the manufacturer's recommendations.
Two wells were used for each sample. 90 µL active ROCK-II positive control and samples were added to the wells of the substrate plate. 10 X kinase solution comprising DTT and ATP was added to 10 µL wells and the kinase reaction was started and the plate was incubated at 30 °C for 30-60 minutes. 50 µL 0.5 M EDTA was added to each well at pH=8.0 and the reaction was stopped. The wells were emptied and they were washed 3 times with 250 µL 1X washing solution. After the final washing, 100 µL anti-phospho-MYPT1 (Thr696) antibody was added. The plate was closed and it was incubated at room temperature for 1 hour on an orbital shaker. After the wells were washed three times again, 100 µL HRP-conjugated secondary antibody was added and it was incubated again at room temperature for 1 hour on an orbital shaker. After the wells were emptied, they were washed 3 times. Then 100 µL of substrate solution was added. It was incubated at room temperature for 5-20 minutes on an orbital shaker. 100 µL of stop solution was added. The absorbance of each well was read at a wavelength of 450 nm in a spectrophotometric microplate reader.

COX-1 = molecular target: T1, COX-1 (Homo sapiens, UniProt P23219); assay: COX activity assay (colorimetric kit) on lysates of treated A549 cells, COX-1; format: cell-based; conditions: 24 hours incubation, IC50 concentrations
T1 construct: endogenous in cells; host or cells: A549
Description: as §1
COX activity was carried out using Cayman COX activity assay kit in compliance with the manufacturer's recommendations. Briefly, 150 µL of each sample was kept in boiling water for 5 minutes and centrifuged at 8000 × g for 1 minute and it was used to obtain background values. […] 110 µL assay solution, 10 µL hemin and 40 µL sample, 10 µL DuP-697 or SC-560 was added to the inhibitor wells (DuP-697 inhibits COX-2 activity; while SC-560 inhibits COX-1 activity). The plate was shaked for a few seconds and it was left at 25 °C for 5 minutes. 20 µL colorimetric substrate was added to all wells. Moreover, a reaction was started by adding 20 µL arachidonic acid solution and the plate was shaked for a few seconds and it was left at 25 °C for 5 minutes. The absorbance values were read at 540 nm.

A549 cells [3] = assay: Cell cycle arrest by flow cytometry; format: cell-based, human; conditions: IC50 doses, 24 hours
Description: After the active compounds were determined with the MTT assay, their effects on the cell cycle in A549 cells depending on IC50 concentrations were carried out according to the manufacturer's recommendations. Briefly, the cells were suspended in a citrate buffer solution. The cells were centrifuged at 400 × g for 5 minutes at room temperature. The supernatant was removed and 250 µL solution A was added on the pellet. Following this, 200 µL solution B was added and it was kept at room temperature 10 minutes. Afterwards 200 µL solution C was added and it was kept at +4 °C for 10 minutes. The cells were analyzed with flow cytometry using BD Biosciences ModFit software.

T1 sequence (P23219 24-599): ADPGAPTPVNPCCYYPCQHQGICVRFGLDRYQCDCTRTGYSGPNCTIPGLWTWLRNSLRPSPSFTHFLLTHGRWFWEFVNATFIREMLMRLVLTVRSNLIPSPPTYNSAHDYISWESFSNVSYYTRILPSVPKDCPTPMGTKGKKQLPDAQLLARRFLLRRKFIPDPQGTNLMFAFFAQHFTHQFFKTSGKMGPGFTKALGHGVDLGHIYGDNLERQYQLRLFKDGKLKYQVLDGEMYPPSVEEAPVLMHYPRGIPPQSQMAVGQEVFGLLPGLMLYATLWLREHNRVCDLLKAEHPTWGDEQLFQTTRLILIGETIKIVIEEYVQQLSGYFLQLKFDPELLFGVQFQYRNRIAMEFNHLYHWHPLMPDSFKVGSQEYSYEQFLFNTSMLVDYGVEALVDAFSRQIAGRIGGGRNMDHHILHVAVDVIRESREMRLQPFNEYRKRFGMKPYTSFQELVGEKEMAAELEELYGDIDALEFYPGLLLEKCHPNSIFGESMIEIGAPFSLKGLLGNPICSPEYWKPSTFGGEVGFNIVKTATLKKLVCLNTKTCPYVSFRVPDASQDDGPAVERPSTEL

FC(F)(F)c1ccc(C2=Nn3c(CCc4ccc5c(c4)OCO5)nnc3SC2)cc1 [Compound 11, 3-[2-(1,3-Benzodioxole-5-yl)ethyl]-6-(4-trifluoromethylphenyl)-7H-[1,2,4]triazolo [3,4-b][1,3,4]thiadiazine]
IC50 [1]: 0.73 ± 0.16 µg/mL (≈ 1.69 µM) | Early apoptotic cells% (A549 cells [2]): 2.90% | Late apoptotic cells% (A549 cells [2]): 9.90% | Necrosis% (A549 cells [2]): 14.80% | Viable cells% (A549 cells [2]): 72.30% | early and late apoptotic effects (A549 cells [2]): 12.80% | Caspase-3 negative (-) cells% (caspase-3): 97.00% | Caspase-3 positive (+) cells% (caspase-3): 3.10% | ROCK inhibition (in words) (ROCK): did not exhibit significant ROCK inhibition | COX-1 Inhibition% (COX-1): 54.18% | COX-1 activity (U/mL) (COX-1): 1.88 U/mL | G0/G1% (A549 cells [3]): 57.29% | G2/M% (A549 cells [3]): 8.15% | S% (A549 cells [3]): 34.57%

Fc1cccc(C2=Nn3c(CCc4ccc5c(c4)OCO5)nnc3SC2)c1 [Compound 12, 3-[2-(1,3-Benzodioxole-5-yl)ethyl]-6-(3-fluorophenyl)-7H-[1,2,4]triazolo [3,4-b] [1,3,4]thiadiazine]
IC50 [1]: 0.8 ± 0.05 µg/mL (≈ 2.09 µM) | Early apoptotic cells% (A549 cells [2]): 4.80% | Late apoptotic cells% (A549 cells [2]): 29.70% | Necrosis% (A549 cells [2]): 40.80% | Viable cells% (A549 cells [2]): 24.70% | early and late apoptotic effects (A549 cells [2]): 34.50% and 25.90% | Caspase-3 negative (-) cells% (caspase-3): 97.80% | Caspase-3 positive (+) cells% (caspase-3): 2.40% | ROCK inhibition (in words) (ROCK): did not exhibit significant ROCK inhibition | COX-1 activity (U/mL) (COX-1): 2.51 U/mL | G0/G1% (A549 cells [3]): 54.20% | G2/M% (A549 cells [3]): 6.52% | S% (A549 cells [3]): 39.28%

N.N.[Cl][Pt][Cl] [Cisplatin, reference compound]
IC50 values (µg/mL) A549 cell line ([1]; 24 hour incubation): 23.00 ± 1.41 µg/mL | Early apoptotic cells% (A549 cells [2]): 14.70% | Late apoptotic cells% (A549 cells [2]): 30.10% | Necrosis% (A549 cells [2]): 28.70% | early and late apoptotic effects (A549 cells [2]): 44.80% | Caspase-3 negative (-) cells% (caspase-3): 89.70% | Caspase-3 positive (+) cells% (caspase-3): 10.30% | ROCK Inhibition% (ROCK): 29.84±0.16% | ROCK Inhibition% (ROCK; listed as cisplatin): 29.84% | COX-1 Inhibition% (COX-1): 24.65% | COX-1 activity (U/mL) (COX-1): 3.08 U/mL | G0/G1% (A549 cells [3]): 45.92% | G2/M% (A549 cells [3]): 4.00% | S% (A549 cells [3]): 50.07%

c1ccc(-c2ccc(C3=Nn4c(CCc5ccc6c(c5)OCO6)nnc4SC3)cc2)cc1 [Compound 14, 3-[2-(1,3-Benzodioxole-5-yl)ethyl]-6-(biphenyl-4-yl)-7H-[1,2,4]triazolo[3,4-b] [1,3,4]thiadiazine]
IC50 [1]: 2.63 ± 0.72 µg/mL (≈ 5.97 µM) | Early apoptotic cells% (A549 cells [2]): 4.20% | Late apoptotic cells% (A549 cells [2]): 21.70% | Necrosis% (A549 cells [2]): 34.60% | Viable cells% (A549 cells [2]): 39.50% | early and late apoptotic effects (A549 cells [2]): 25.90% and 34.50% | Caspase-3 negative (-) cells% (caspase-3): 96.60% | Caspase-3 positive (+) cells% (caspase-3): 3.70% | IC50 (ROCK inhibition) (ROCK; 24 hours incubation): 2.55 ± 0.21 µg/mL (≈ 5.79 µM) | ROCK Inhibition% (ROCK): 53.85% and 53.85±8.85% | COX-1 Inhibition% (COX-1): 2.19% | COX-1 activity (U/mL) (COX-1): 4.15 U/mL | G0/G1% (A549 cells [3]): 54.92% | G2/M% (A549 cells [3]): 7.91% | S% (A549 cells [3]): 37.17%

CS(=O)(=O)c1ccc(C2=Nn3c(CCc4ccc5c(c4)OCO5)nnc3SC2)cc1 [Compound 9]
IC50 [1]: 5.75 ± 2.47 µg/mL (≈ 13 µM) | Early apoptotic cells% (A549 cells [2]): 5.00% | Late apoptotic cells% (A549 cells [2]): 16.20% | Necrosis% (A549 cells [2]): 6.30% | Viable cells% (A549 cells [2]): 72.50% | early and late apoptotic effects (A549 cells [2]): 21.20% | Caspase-3 negative (-) cells% (caspase-3): 96.70% | Caspase-3 positive (+) cells% (caspase-3): 3.40% | ROCK inhibition (in words) (ROCK): did not exhibit significant ROCK inhibition | ROCK Inhibition% (ROCK): 6.89±0.44% | COX-1 Inhibition% (COX-1): 35.21% | COX-1 activity (U/mL) (COX-1): 3.41 U/mL | G0/G1% (A549 cells [3]): 53.29% | G2/M% (A549 cells [3]): 9.66% | S% (A549 cells [3]): 37.04%
